Data from US4748161A, “Triterpenyl esters of organic acids and hypolipidemic agents composed of them” (Amano Pharmaceutical Co., Ltd., priority 1984, dated 1988).
Read-outs that look alike come from different tables or passages of the source.

What was measured:
serum lipids = conditions: 0.2% in high cholesterol diet, cited from earlier work; for TG level lowering: not significant; for TC level lowering: significant
[1] = tested on: serum lipids and serum lipid hydroperoxide; experiment: Pharmacological test method B for anti-hyperlipidemic activity (serum lipids, 4 weeks feeding); assay type: in vivo, male Wistar strain rats; design: AI Diff.: unit not given here; conditions: for AI [(TC - HDL-C)/(HDL-C)] / HDL-C in serum / LPO in serum / PL in serum / TC in serum / TG in serum: 1% in hyperlipidemic diet, 4 weeks; for change in vivo at 1 % in diet: Rattus norvegicus, po, 672 h; for change in vivo at 1 % in diet / AI Diff. / HDL-C Diff. / LPO Diff. / PL Diff. / TC % of diff. / TC Diff. / TG Diff.: versus control group; for HDL-C rise compared with normal diet group: versus normal diet group
Procedure, shortened: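 Male Wistar rats (100±1 g, n=8; hyperlipidemic control n=16) were fed for 4 weeks a diet with 1% cholesterol and 0.5% cholic acid, with test compound admixed at 1%. After a 16 h fast, serum was taken from the abdominal aorta under pentobarbital. TC, HDL-C and PL were measured by enzymatic colorimetric kits at 500 nm; TG by acetylacetone kit; LPO also measured.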

[2] = Body weight of rats in method B; design: species or system male Wistar strain rats; conditions: rat, in vivo
Method: Male Wistar strain rats (100±1 g, each 8 rats were formed into a group except that the control group fed with a hyperlipidemic diet was formed of 16 rats) were used as test animals. A powdery diet (CE-2, supplied by Clea Japan, Inc.) was used as ordinary diet. The hyperlipidemic diet was prepared by fortifying the ordinary diet with cholesterol (1%) and cholic acid (0.5%). Each test compound (1%) for administration was admixed with the hyperlipidemic diet. Each two rats were kept in a cage and given the prescribed diet and water ad libitum. Thus the rats were fed for 4 weeks at a constant temperature of 23±1° C. and a constant R.H. of 55±5%. Finally, the rats were fasted from food except water for 16 hours (from 4 p.m. of the 28th test day to 8 a.m. of the 29th test day), and under anesthesia with pentbarbital sodium (tradename: Nembutal), blood was taken from each rat through the descending abdominal arota. Then, TC, HDL-C, TG, PL, and LPO in the serum were measured in the following manner.

male ddy strain mice = experiment: Acute toxicity test, mice, oral; assay type: in vivo, mouse (male ddy strain); conditions: 0.1 to 5 g/Kg
Method: (§1) Acute toxicity tests were conducted using 5 male ddy strain mice (30±2 g) and 5 male Wistar strain rats (100±2 g) for each compound by oral administration.
(§2) The above 66 compounds of esters, and as control drugs, cycloartenol, 24-methylenecycloartanol, cyclobranol, and γ-orizanol were given forcibly to the above-mentioned mice and rats by means of a throat explorer rod in doses of 0.1 to 5 g/Kg for mice and 2 to 6 g/Kg for rats. During the test, the temperature of the animal room was kept at 22° to 23 ° C. […] In the inspection conducted after 2-week observation, no macroscopic lesion was found in any part of main organs. Thus the compound of the invention has very low toxicity, so that the LD50 value could not determined.

male Wistar strain rats = experiment: Acute toxicity test, rats, oral; assay type: in vivo, rat (male Wistar strain); conditions: 2 to 6 g/Kg
Method: as §1, §2

[3] = tested on: serum lipids and serum lipid hydroperoxide; experiment: Pharmacological test method A for anti-hyperlipidemic activity (serum lipids, 2 weeks feeding); assay type: in vivo, male Wistar strain rats
Procedure, shortened: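 Serum TC, HDL-C (heparin precipitation), PL, TG and LPO measured by colorimetric kits, largely at 500 nm, from abdominal aorta blood after 16 h fasting. Rats (male Wistar, 10/group) ate a cholesterol/cholic acid diet 10 g/day for 2 weeks, supplemented with 1% each of three cycloartane triterpenoids.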

COc1cc(C(=O)O)ccc1O [vanillic acid]
decrease of TC, TG, or PL level (serum lipids): no decrease

O=C(O)C=Cc1ccccc1 [cinnamic acid]
decrease of TC, TG, or PL level (serum lipids): no decrease

COc1cc(/C=C/C(=O)O)ccc1O [ferulic acid, 4-hydroxy-3-methoxycinnamic acid]
TG level lowering (serum lipids): 18.7%
TC level lowering (serum lipids): 10.8%
PL level lowering (serum lipids): scarcely observed

O=C(O)/C=C/c1ccc(O)cc1 [p-coumaric acid]
TG level lowering (serum lipids): 19.8%
TC level lowering (serum lipids): 9.4%
PL level lowering (serum lipids): scarcely observed

O=C(O)/C=C/c1ccc(O)c(O)c1 [caffeic acid]
decrease of TC, TG, or PL level (serum lipids): no decrease

COc1cc(C=C(C)C(=O)OC2CCC34CC35CCC3(C)C(C(C)CCC(C)=C(C)C)CCC3(C)C5CCC4C2(C)C)ccc1O (stereo not drawn) [Example 116, cyclobranyl ester of 4-hydroxy-3-methoxy-α-methylcinnamic acid]
AI [(TC - HDL-C)/(HDL-C)] [1]: 1.282
HDL-C in serum [1]: 61.4 mg/dL
LPO in serum [1]: 2.11 nmol/mL
PL in serum [1]: 97.4 mg/dL
TC in serum [1]: 140.1 mg/dL
TG in serum [1]: 54.0 mg/dL
change in vivo at 1 % in diet ([1]; read-out: AI % of diff.): -94.1%
change in vivo at 1 % in diet ([1]; read-out: HDL-C % of diff.): 355%
change in vivo at 1 % in diet ([1]; read-out: LPO % of diff.): -25.2%
change in vivo at 1 % in diet ([1]; read-out: PL % of diff.): -30.5%
change in vivo at 1 % in diet ([1]; read-out: TG % of diff.): -10.8%
AI Diff. [1]: -20.48
HDL-C Diff. [1]: +47.9 mg/dl
LPO Diff. [1]: -0.71 nmol/mL
PL Diff. [1]: -42.7 mg/dL
TC % of diff. [1]: -54.4%
TC Diff. [1]: -167.2 mg/dL
TG Diff. [1]: -6.1 mg/dL
HDL-C rise compared with normal diet group [1]: remarkable rises
Body weight during feed period, 1st day [2]: 106 ± 5.9 g
Body weight during feed period, 8th day [2]: 146 ± 10.0 g
Body weight during feed period, 15th day [2]: 193 ± 17.5 g
Body weight during feed period, 22nd day [2]: 244 ± 15.8 g
Body weight during feed period, 28th day [2]: 273 ± 20.4 g
Body weight just before blood sampling, 29th day [2]: 260 ± 19.0 g

CC(=Cc1cccc(N)c1)C(=O)OC1CCC23CC24CCC2(C)C(C(C)CCC(C)=C(C)C)CCC2(C)C4CCC3C1(C)C (stereo not drawn) [Example 212, Cyclobranyl ester of m-amino-α-methylcinnamic acid]
AI [(TC - HDL-C)/(HDL-C)] [1]: 4.242
HDL-C in serum [1]: 37.2 mg/dL
LPO in serum [1]: 2.01 nmol/mL
PL in serum [1]: 112.9 mg/dL
TC in serum [1]: 195.0 mg/dL
TG in serum [1]: 59.7 mg/dL
Body weight during feed period, 1st day [2]: 104 ± 3.3 g
Body weight during feed period, 8th day [2]: 143 ± 9.2 g
Body weight during feed period, 15th day [2]: 190 ± 18.6 g
Body weight during feed period, 22nd day [2]: 239 ± 15.8 g
Body weight during feed period, 28th day [2]: 268 ± 21.4 g
Body weight just before blood sampling, 29th day [2]: 257 ± 19.0 g

CCOc1ccc(N)cc1C=CC(=O)OC1CCC23CC24CCC2(C)C(C(C)CCC=C(C)C)CCC2(C)C4CCC3C1(C)C (stereo not shown) [Example 183, Cycloartenyl ester of 5-amino-2-ethoxycinnamic acid]
AI [(TC - HDL-C)/(HDL-C)] [1]: 7.356
HDL-C in serum [1]: 29.2 mg/dL
LPO in serum [1]: 2.08 nmol/mL
PL in serum [1]: 125.7 mg/dL
TC in serum [1]: 244.0 mg/dL
TG in serum [1]: 65.2 mg/dL
Body weight during feed period, 1st day [2]: 105 ± 3.9 g
Body weight during feed period, 8th day [2]: 142 ± 8.8 g
Body weight during feed period, 15th day [2]: 189 ± 11.9 g
Body weight during feed period, 22nd day [2]: 239 ± 16.5 g
Body weight during feed period, 28th day [2]: 268 ± 20.9 g
Body weight just before blood sampling, 29th day [2]: 257 ± 18.8 g

CC(C)=C(C)CCC(C)C1CCC2(C)C3CCC4C(C)(C)C(O)CCC45CC35CCC12C (stereo not shown) [Sample 2, cyclobranol]
Symptoms of toxicosis (male ddy strain mice): no symptom of toxicosis appeared
Mortality (male ddy strain mice; 2 weeks observation): none of the animals died
Symptoms of toxicosis (male Wistar strain rats): no symptom of toxicosis appeared
Mortality (male Wistar strain rats; 2 weeks observation): none of the animals died
AI change [3]: showed tendencies to decrease it

COc1cc(C=C(C)C(=O)OC2CCC34CC35CCC3(C)C(C(C)CCC=C(C)C)CCC3(C)C5CCC4C2(C)C)ccc1N (stereo not drawn) [Example 189, Cycloartenyl ester of 4-amino-3-methoxy-α-methylcinnamic acid]
AI [(TC - HDL-C)/(HDL-C)] [1]: 4.071
HDL-C in serum [1]: 35.4 mg/dL
LPO in serum [1]: 2.05 nmol/mL
PL in serum [1]: 115.0 mg/dL
TC in serum [1]: 179.5 mg/dL
TG in serum [1]: 58.4 mg/dL
Body weight during feed period, 1st day [2]: 104 ± 3.8 g
Body weight during feed period, 8th day [2]: 142 ± 8.1 g
Body weight during feed period, 15th day [2]: 188 ± 12.6 g
Body weight during feed period, 22nd day [2]: 239 ± 20.6 g
Body weight during feed period, 28th day [2]: 268 ± 22.7 g
Body weight just before blood sampling, 29th day [2]: 256 ± 20.2 g

COc1cc(C=CC(=O)OC2CCC34CC35CCC3(C)C(C(C)CCC=C(C)C)CCC3(C)C5CCC4C2(C)C)ccc1N (stereo not shown) [Example 177, Cycloartenyl ester of 4-amino-3-methoxycinnamic acid]
AI [(TC - HDL-C)/(HDL-C)] [1]: 6.554
HDL-C in serum [1]: 32.5 mg/dL
LPO in serum [1]: 2.29 nmol/mL
PL in serum [1]: 125.8 mg/dL
TC in serum [1]: 245.5 mg/dL
TG in serum [1]: 63.1 mg/dL
Body weight during feed period, 1st day [2]: 104 ± 3.9 g
Body weight during feed period, 8th day [2]: 142 ± 9.6 g
Body weight during feed period, 15th day [2]: 187 ± 12.8 g
Body weight during feed period, 22nd day [2]: 238 ± 21.2 g
Body weight during feed period, 28th day [2]: 267 ± 25.2 g
Body weight just before blood sampling, 29th day [2]: 256 ± 27.1 g

CCC(=Cc1ccc(O)c(OC)c1)C(=O)OC1CCC23CC24CCC2(C)C(C(C)CCC=C(C)C)CCC2(C)C4CCC3C1(C)C (stereo not drawn) [Example 120, cycloartenyl ester of 4-hydroxy-3-methoxy-α-ethylcinnamic acid]
AI [(TC - HDL-C)/(HDL-C)] [1]: 7.260
HDL-C in serum [1]: 24.6 mg/dL
LPO in serum [1]: 2.06 nmol/mL
PL in serum [1]: 105.3 mg/dL
TC in serum [1]: 203.2 mg/dL
TG in serum [1]: 53.0 mg/dL
change in vivo at 1 % in diet ([1]; read-out: AI % of diff.): -66.6%
change in vivo at 1 % in diet ([1]; read-out: HDL-C % of diff.): 82.2%
change in vivo at 1 % in diet ([1]; read-out: LPO % of diff.): -27%
change in vivo at 1 % in diet ([1]; read-out: PL % of diff.): -24.8%
change in vivo at 1 % in diet ([1]; read-out: TG % of diff.): -6.2%
AI Diff. [1]: -14.5
HDL-C Diff. [1]: +11.1 mg/dl
LPO Diff. [1]: -0.76 nmol/mL
PL Diff. [1]: -34.8 mg/dL
TC % of diff. [1]: -33.9%
TC Diff. [1]: -104.1 mg/dL
TG Diff. [1]: -3.5 mg/dL
Body weight during feed period, 1st day [2]: 105 ± 3.2 g
Body weight during feed period, 8th day [2]: 144 ± 9.4 g
Body weight during feed period, 15th day [2]: 191 ± 18.2 g
Body weight during feed period, 22nd day [2]: 242 ± 15.7 g
Body weight during feed period, 28th day [2]: 272 ± 20.1 g
Body weight just before blood sampling, 29th day [2]: 258 ± 23.0 g

CCOc1cc(C=C(C)C(=O)OC2CCC34CC35CCC3(C)C(C(C)CCC(C)=C(C)C)CCC3(C)C5CCC4C2(C)C)ccc1O (stereo not drawn) [Example 140, cyclobranyl ester of 3-ethoxy-4-hydroxy-α-methylcinnamic acid]
AI [(TC - HDL-C)/(HDL-C)] [1]: 2.602
HDL-C in serum [1]: 54.8 mg/dL
LPO in serum [1]: 2.02 nmol/mL
PL in serum [1]: 98.0 mg/dL
TC in serum [1]: 197.4 mg/dL
TG in serum [1]: 52.4 mg/dL
change in vivo at 1 % in diet ([1]; read-out: AI % of diff.): -88%
change in vivo at 1 % in diet ([1]; read-out: HDL-C % of diff.): 306%
change in vivo at 1 % in diet ([1]; read-out: LPO % of diff.): -28.4%
change in vivo at 1 % in diet ([1]; read-out: PL % of diff.): -30%
change in vivo at 1 % in diet ([1]; read-out: TG % of diff.): -7.3%
AI Diff. [1]: -19.16
HDL-C Diff. [1]: +41.3 mg/dl
LPO Diff. [1]: -0.80 nmol/mL
PL Diff. [1]: -42.1 mg/dL
TC % of diff. [1]: -35.8%
TC Diff. [1]: -109.9 mg/dL
TG Diff. [1]: -4.1 mg/dL
HDL-C rise compared with normal diet group [1]: remarkable rises
Body weight during feed period, 1st day [2]: 105 ± 3.6 g
Body weight during feed period, 8th day [2]: 147 ± 9.5 g
Body weight during feed period, 15th day [2]: 194 ± 17.2 g
Body weight during feed period, 22nd day [2]: 246 ± 15.8 g
Body weight during feed period, 28th day [2]: 273 ± 18.7 g
Body weight just before blood sampling, 29th day [2]: 261 ± 15.6 g
